Here are results for two compounds from patent publication US11096948B2, “Methods for treating helicobacter infection” (DEXCEL PHARMA TECHNOLOGIES LTD., priority 2016, dated 2021).

One assay has as its system H. pylori ATCC No. 43826. In words: Disk diffusion susceptibility of H. pylori to sodium fusidate. Type of assay: cell-based, Helicobacter pylori. The settings on record: 4 days at 37° C., sample No. = replicate disk. The protocol:
(§1) In vitro testing for the susceptibility of H. pylori to sodium fusidate was performed. Inoculation was made with a broth culture of two ATCC strains of H. pylori (ATCC No. 700824 and 43826) diluted to match a 0.5 McFarland turbidity standard. Disks containing increasing antibiotic concentrations (0.5-4.0%) were placed on seeded bacterial lawn on agar surface. Three disks with the same antibiotic concentration were placed on each plate. The disks were evenly distributed in a circle towards the periphery of the plate. Plates were incubated for 4 days at an incubation temperature of 37° C. (with Microaerophilic pach). Diameter of inhibition sizes was measured wherein each disk was considered to represent the center of the clear zone, namely the slope of the regression line is construed to correspond to the diffusion coefficient of the antibiotic in the agar. Negative control disks containing water instead of antibiotics were placed at the center of each dish. A separate plate with no disks was prepared as an additional control. […]

Assay [1] has as its system H. pylori ATCC No. 700824. The assay is described as above. Type of assay: cell-based, Helicobacter pylori. The conditions noted are these: 4 days at 37° C., sample No. = replicate disk. Here is the method: as §1
The test system of assay [2] is different strains of H. pylori. In words: In vitro studies against different strains of H. pylori. The format is cell-based, Helicobacter pylori. From the text:
The present disclosure is based in part on the unexpected finding of bacteriostatic and/or bacteriocidic action of fusidic acid or a pharmaceutically acceptable salt or solvate thereof (e.g. sodium fusidate) against H. pylori. […] This finding provides a significant advantage over the hitherto known treatments, by increasing the percentage of patients in which eradication is achieved, reducing doses and side effects of conventional add-on therapy, preserving gut microbiota, and decreasing exposure to conventional antibiotics thereby decreasing antibiotic resistance. In addition, fusidic acid and/or salts and solvates thereof have no cross-resistance with the existing antibiotics used for the treatment of H. pylori and have low probability for developing resistance.

In the next assay the test system is H. pylori. The settings on record: cited from earlier work.
Setting [3] is: sodium fusidate con. 0.5% on disk.
The mark [4] stands for this setting: sodium fusidate con. 1.0% on disk.
[5] abbreviates: sodium fusidate con. 4.0% on disk.

The structures appear in SMILES notation. Where “and” joins values, the source holds several entries; their conditions need not be identical. Equal values may be shown once.

As for `CC(=O)O[C@H]1C[C@@]2(C)[C@@H](C[C@@H](O)[C@H]3[C@@]4(C)CC[C@@H](O)[C@@H](C)[C@@H]4CC[C@@]32C)/C1=C(\CCC=C(C)C)C(=O)O` [Sodium fusidate, sodium fusidate], the Diameter of inhibition was at least 4.4 cm in the assay on H. pylori ATCC No. 43826 (setting [3]); at least 4.4 cm in the assay with H. pylori ATCC No. 43826 (setting [4]); at least 4.4 cm in the assay with H. pylori ATCC No. 43826 (setting [5]); 1.6 cm and 2 cm and 2.4 cm in assay [1] (setting [3]); 2.7 cm and 2.6 cm and 3.0 cm in assay [1] (setting [4]); at least 4.4 cm in assay [1] (setting [5]). Further, the “Activity against different strains of H. pylori” value in assay [2] is given as “active”.
On to `CC(=O)O[C@H]1C[C@@]2(C)[C@@H](C[C@@H](O)[C@H]3[C@@]4(C)CC[C@@H](O)[C@@H](C)[C@@H]4CC[C@@]32C)/C1=C(\CCC=C(C)C)C(=O)O` [fusidic acid, 29-Nordammara-17(20),24-dien-21-oic acid, 16-(acetyloxy)-3,11-dihydroxy-, (3α, 4α, 8α, 9α, 11α, 13α, 14β, 16β, 17Z)-], for which, in assay [2], the “Activity against different strains of H. pylori” value is “active”. For the same compound, the “Efficacy as monotherapy against H. pylori” value in the assay on H. pylori is given as “ineffective”.
